Measured values: the supplement of paper PMC10307832

Experiments:
Experiment in all cases: relative viability (nuclei count vs DMSO), 5 days (fraction); higher = more cells survive
Tanzisertib + Decitabine = compound: O[C@H]1CC[C@H](Nc2ncc3nc(Nc4c(F)cc(F)cc4F)n([C@H]4CCOC4)c3n2)CC1 [Tanzisertib] + Nc1ncn([C@H]2C[C@H](O)[C@@H](CO)O2)c(=O)n1 [Decitabine] (partner 2 µM)
Procedure, shortened: (§1)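 Each reported value is a median over duplicate plates. It expresses relative viability: treated-well nuclei count divided by vehicle-well nuclei count. Lung cancer cell lines in 1536-well plates were dosed by pin tool a day after seeding, alone with one drug or with a fixed anchor-drug dose plus five library-drug doses (not always all listed) in √10 steps, and nuclei were counted after 5 days.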

[1] = compound: C[C@@H](N)c1ccc(C(=O)Nc2ccnc3[nH]ccc23)cc1 + Cc1nc(Nc2ncc(C(=O)Nc3c(C)cccc3Cl)s2)cc(N2CCN(CCO)CC2)n1 [Dasatinib] (partner 0.075 µM)
Procedure, shortened: as §1

Tanzisertib + Bortezomib = compound: O[C@H]1CC[C@H](Nc2ncc3nc(Nc4c(F)cc(F)cc4F)n([C@H]4CCOC4)c3n2)CC1 [Tanzisertib] + CC(C)C[C@H](NC(=O)[C@H](Cc1ccccc1)NC(=O)c1cnccn1)B(O)O [Bortezomib] (partner 0.002 µM)
Procedure, shortened: as §1

[2] = compound: C[C@@H](N)c1ccc(C(=O)Nc2ccnc3[nH]ccc23)cc1 + Cc1cc(Nc2cc(N3CCN(C)CC3)nc(Sc3ccc(NC(=O)C4CC4)cc3)n2)n[nH]1 [Tozasertib] (partner 0.1 µM)
Procedure, shortened: as §1

UMC-11
relative viability (Tanzisertib + Decitabine; first compound 0.08 µM): 0.662 | relative viability (Tanzisertib + Decitabine; first compound 0.253 µM): 0.688 | relative viability (Tanzisertib + Decitabine; first compound 0.8 µM): 0.654 | relative viability (Tanzisertib + Decitabine; first compound 2.53 µM): 0.852 | relative viability (Tanzisertib + Decitabine; first compound 8 µM): 0.85 | relative viability ([1]; first compound 0.04 µM): 0.543 | relative viability ([1]; first compound 0.1265 µM): 0.482 | relative viability ([1]; first compound 0.4 µM): 0.58 | relative viability ([1]; first compound 1.265 µM): 0.518 | relative viability ([1]; first compound 4 µM): 0.527 | relative viability (Tanzisertib + Bortezomib; first compound 0.08 µM): 0.754 | relative viability (Tanzisertib + Bortezomib; first compound 0.253 µM): 0.749 | relative viability (Tanzisertib + Bortezomib; first compound 0.8 µM): 0.825 | relative viability (Tanzisertib + Bortezomib; first compound 2.53 µM): 0.709 | relative viability (Tanzisertib + Bortezomib; first compound 8 µM): 0.946 | relative viability ([2]; first compound 0.04 µM): 0.215 | relative viability ([2]; first compound 0.1265 µM): 0.18 | relative viability ([2]; first compound 0.4 µM): 0.205 | relative viability ([2]; first compound 4 µM): 0.198
